The target in assay [1] is T1, CtHtrA (Chlamydia trachomatis serovar D, UniProt P18584).
T1 construct: His-tag; made in house; host or cells: E. coli BL21 (DE3), plasmid pETHtrA
T1 sequence (P18584 17-497): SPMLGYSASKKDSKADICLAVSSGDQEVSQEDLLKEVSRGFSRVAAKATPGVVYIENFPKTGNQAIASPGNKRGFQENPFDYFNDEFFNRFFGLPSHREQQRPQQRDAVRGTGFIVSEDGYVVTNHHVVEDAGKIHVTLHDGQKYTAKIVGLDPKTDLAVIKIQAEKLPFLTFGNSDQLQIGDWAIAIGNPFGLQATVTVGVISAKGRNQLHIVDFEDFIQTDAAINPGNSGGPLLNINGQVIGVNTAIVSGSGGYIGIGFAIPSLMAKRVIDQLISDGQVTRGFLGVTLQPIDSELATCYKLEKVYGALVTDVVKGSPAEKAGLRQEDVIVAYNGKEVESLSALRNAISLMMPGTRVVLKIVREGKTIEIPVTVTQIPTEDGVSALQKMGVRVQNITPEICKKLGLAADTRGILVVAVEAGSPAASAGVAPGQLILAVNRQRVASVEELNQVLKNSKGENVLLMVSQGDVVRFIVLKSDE
As to the kind of experiment: Oligomerisation assay (glutaraldehyde crosslinking, 3-8% TrisAcetate gel, silver stain). The format is biochemical. As to conditions: wild type CtHtrA 2 mg/ml, 100 mM sodium phosphate pH 7.0, 10 mins at 37°C, 0.5% glutaraldehyde fixation. On the procedure: (§1) E. coli DegP proteolysis activation involves the transition from resting hexamers via trimers to 12- and 24-mers following the peptide activator binding to the PDZ1 binding cleft. CtHtrA oligomer formation induced by Act1 addition was examined after incubation for 10 mins at 37°C. The wild type and mutant proteins were incubated with either the ß-casein based activator peptide (Act1), or with whole insulin (intact), or in the absence of any activator as a control. CtHtrA incubated in the absence of any added activators formed 24-mers with some hexamers detected after 10 mins (Fig. 5). […] The R299W mutant was present as hexamer and 24-mer in the control with no activator. […] The L302N mutant was not detected in any higher oligomeric form under any conditions. L302N was detected as faint hexamer and trimer but mostly monomer under all tested conditions (not visible on these gels). […] I365D was detected as hexamers, trimers, 12-mers, and some 24-mers when incubated in the absence of activators.
(§2) The oligomerisation of HtrA into 12- and 24-mer complexes has been independently detected for E. coli HtrA (DegP). The oligomerisation of HtrA (DegP) was triggered by peptides from digested ß-casein [18]. Assays to detect whether CtHtrA and site directed mutant protein oligomerisation was triggered by substrates were conducted essentially as previously described (Merdanovic et al., 2010). Briefly, 2 mg/ml protein solutions in 100 mM sodium phosphate buffer pH 7.0 were pre-incubated to the required temperature. The ligands (activator peptide, or insulin) were added and at 10 min, and the proteins were fixed using 0.5% glutaraldehyde. Samples were fixed at room temperature for 2 min prior to addition of 1 M Tris pH 7.5 to remove any excess glutaraldehyde. Samples were incubated for another 10 min at room temperature prior to addition of SDS PAGE reducing loading buffer. The protein samples were examined on 3–8% TrisAcetate gradient polyacrylamide gels (Novex, Invitrogen) by silver staining. The proteins used in this study were not initially denatured by treatment with urea as, the refolding, formation of oligomers, and protease activity was never successfully detected with denatured CtHtrA. All assays were conducted in duplicate on three separate occasions with at least two gels of each experiment completed for each assay condition.

The target of assay [2] is T1, CtHtrA. As to the kind of experiment: Protease assay and kinetic analysis with pNA-labelled peptide substrates. The class given is biochemical. Particulars: pNA peptide as substrate, absorbance 405 nm, 37°C; for Vmax: reading every 10 s for 30 min. On the procedure:
A series of peptide substrates were then designed based on the cleavage sites previously identified in ß-casein [3], PICS results, previously published substrates for E. coli DegP [22], and the REPLi library screening results. These peptides were assayed against CtHtrA and kinetic analysis was conducted (Table 2). […] Generally, peptides with only 4 residues or less were not cleaved. […] The preference for K at P3 implies a salt bridge may be involved in substrate coordination in the CtHtrA active site in the substrate pocket or subsite S3. In a direct comparison between MFRLI-pNA and MFQLI-pNA, R was clearly the most preferred. […] The Km for each of these, however, was at least an order of magnitude higher than the Km for MFKLI-pNa. The results from individually synthesised peptides (Table 2) and the peptides sourced from the REPLi library (Table 1) were consistent in that non-polar sequences are most preferred. […] (Fig. S3).
The purified recombinant protein was examined by Coomassie stained polyacrylamide gels and activity was checked using ß-casein cleavage assays prior to use in peptide assays. Briefly, this involved incubating 2 µg of the protease with 10 µg of ß-casein in 50 mM Tris pH 7.0, 20 mM MgCl2 for 2 h prior to examining the assays by SDS PAGE (ß-casein and protease only controls were always conducted). Protease assays using peptides were conducted using custom synthesised peptides (Mimotopes). The peptides were purified to 95% purity (or greater) and were typically resuspended in 50% isopropanol, although some peptides required 100% DMSO. Protease assays using pNA labelled peptides were conducted using the xMARK Microplate spectrophotometer (Bio-Rad) at 405 nm, incubated at 37°C, with a reading taken every 10 s for 30 min. The maximum slope over a minimum of 8 readings was used for the data analysis. Other peptides were labelled with 7-methoxycoumarin-4-acetic acid (MCA, fluorophore) and 2,4-dinitrophenyl (DNP, quencher). The protease assays using these peptides were conducted in black plates at 37°C using the POLARstar Optima (BMG Labtech). The assays were excited at 340 nm and emission was detected at 405 nm with a gain of 1000, the assays were monitored every 20 s or at the minimum cycle time for up to 40 min. The Omega software was used to calculate the maximum rate from a minimum of 6 time points for each assay. The REPLi library of peptides (Mimotopes, Melbourne, Australia) was also assayed with CtHtrA in the POLARstar Optima using similar assay conditions to those described above. Substrate only and protease only assay controls were conducted for every experiment and protease assays were typically conducted in triplicate on at least two different days. The assay results shown are the maximal rate observed from three or more different assays and adjusted for protein concentration. The assay results shown for the fluorescent compounds have been normalised for the amount of fluorescent emission detected using a standard curve of known concentrations of the MCA fluorophore under the identical assay conditions. All of the peptides used in this work were synthesised commercially to 95% purity or greater (Mimotopes, Melbourne, Australia). All protease assays were conducted minimally in duplicate on three separate occasions.

Assay [3] concerns the target T1, CtHtrA. Description: MS and MS-MS analysis of peptide cleavage products. The format is biochemical. As to conditions: peptide 150 µM digested with CtHtrA (71 µg); sites MCA-ENLH↓LPLPI↓IF-DNP. Here is the method: Bcas1 and Act1 peptides (150 µM concentration) digested with CtHtrA (71 µg) were analysed by online LC/MS/MS using a QStar Pulsar I (Applied Biosystems) in […] mode. Data acquired were converted into mzXML format using proteowizard (v2) and searched using ([…], the global proteome machine, ftp://ftp.thegpm.org/fasta/cRAP), against CtHtrA and Act1 and Bcas1 peptide sequences with an included decoy database of the reverse sequence for each protein. The search also included potential mass modifications accounting for the additional […] moieties on the N and C peptide termini, respectively. Matches with an expected ratio of <1 were considered identified. All raw data and mass spectra can be made available on request.

The target of assay [4] is T1, CtHtrA. As to the kind of experiment: Activation of CtHtrA cleavage of Bcas1 substrate by added activator. The class given is biochemical. As to conditions: substrate Bcas1 (MCA-ENLHLPLPIIF-DNP), fluorimetric, 37°C. On the procedure: To determine if the addition of a second peptide to the protease assays could activate or increase CtHtrA proteolysis, two activator peptides were tested in the CtHtrA cleavage of the model ß-casein peptide substrate Bcas1. The first was based on the ß-casein C-terminal sequence (Act1: NH2-VLGPVRGPFPIIV-OH) and the second on insulin b chain C-terminal sequence (Act2: NH2-CGELGFFYTP-OH).
Finally, in order to determine if the 24-mer (highest amount with MOMP protein, or Act1), or 12-mer, or both, corresponds to enhanced protease activity, the incubations of CtHtrA and these potential in vivo activators were used for protease assays with the Bcas1 substrate (Fig. 6). […] The presence of the majority of CtHtrA as higher order oligomers correlated with an increased rate of proteolysis for CtHtrA, particularly when these oligomers were predominately 24-mers.
The purified recombinant protein was examined by Coomassie stained polyacrylamide gels and activity was checked using ß-casein cleavage assays prior to use in peptide assays. Briefly, this involved incubating 2 µg of the protease with 10 µg of ß-casein in 50 mM Tris pH 7.0, 20 mM MgCl2 for 2 h prior to examining the assays by SDS PAGE (ß-casein and protease only controls were always conducted). Protease assays using peptides were conducted using custom synthesised peptides (Mimotopes). […] Protease assays using pNA labelled peptides were conducted using the xMARK Microplate spectrophotometer (Bio-Rad) at 405 nm, incubated at 37°C, with a reading taken every 10 s for 30 min. The maximum slope over a minimum of 8 readings was used for the data analysis. […] The assays were excited at 340 nm and emission was detected at 405 nm with a gain of 1000, the assays were monitored every 20 s or at the minimum cycle time for up to 40 min. […] The assay results shown for the fluorescent compounds have been normalised for the amount of fluorescent emission detected using a standard curve of known concentrations of the MCA fluorophore under the identical assay conditions. […]

For another assay, the system named is CtHtrA R299W. Description: Oligomerisation assay, mutated protein. Particulars: R299W mutant, 10 mins incubation. The format is biochemical, Chlamydia trachomatis. Here is the method: as §1, §2
A further assay deals with CtHtrA R373A. Description: Oligomerisation assay, mutated protein. The class given is biochemical, Chlamydia trachomatis. As to conditions: R373A mutant, 10 mins incubation. Here is the method:
as §1, §2

The subject of a further assay is CtHtrA R373A/R299W. Description: Oligomerisation assay, mutated protein. As to conditions: R373A/R299W mutant, 10 mins incubation. The class given is biochemical, Chlamydia trachomatis.
Source text: This activation was very similar to that observed for CtHtrA, and was the only condition during which any of the mutated proteins oligomerised in a similar profile to CtHtrA.
as §2, with “All assays were conducted in duplicate on three separate occasions with at least two gels of each experiment completed for each assay condition.” left out

No end group written: not given here. *: point of attachment. pNA = O=[N+]([O-])c1ccc(N*)cc1

In the case of H-HDVLSPSLDEINVP-OH [PyKinC], the “CtHtrA oligomer formation induced by activator” value on CtHtrA [1] is “activated mainly trimer formation with some 12-mer present”.

On to “MFQLI-pNA [pNA peptide substrate, P3 modification]”, for which, on CtHtrA [2], the Kcat/Km amounted to 21.2 M⁻¹ s⁻¹; the Michaelis-Menten constant (Km) (as a rule, the substrate concentration at which the rate is half of its maximum) came out at 141 µM; the Vmax was 0.1796 mM sec^−1, µM CtHtrA^−1.

Turning to “DMPFKLT-pNA [Model E. coli substrate, T at P1]”, at CtHtrA [2], the Kcat/Km came out at 158.7 M⁻¹ s⁻¹; the Michaelis-Menten constant (Km) was found to be 940 µM; the Vmax is 8.955 mM sec^−1, µM CtHtrA^−1.

In the case of “PMFKLI-pNA [pNA peptide substrate, 1 residue less]”, on CtHtrA [2], the Kcat/Km worked out at 526.7 M⁻¹ s⁻¹; the Km is 314 µM; the Vmax is 9.931 mM sec^−1, µM CtHtrA^−1.

Take “MFRLI-pNA [pNA peptide substrate, P3 modification]”: on CtHtrA [2], the Kcat/Km was determined as 106.22 M⁻¹ s⁻¹; the Michaelis constant (Km) amounted to 2910 µM; the Vmax was 18.53 mM sec^−1, µM CtHtrA^−1.

Turning to “DPMFKLL-pNA [Model E. coli substrate, L at P1]”, on CtHtrA [2], the Michaelis-Menten constant (Km) stood at 883 µM and the Vmax is given as 3.179 mM sec^−1, µM CtHtrA^−1.

Take “DPMFKLP-pNA [Model E. coli substrate, P at P1]”: on CtHtrA [2], the Km amounted to 3870 µM and the Vmax is on record as 2.917 mM sec^−1, µM CtHtrA^−1.

Consider MFKLI-pNA, for which, on CtHtrA [2], the Kcat/Km amounted to 1084.8 M⁻¹ s⁻¹; the Km is 62 µM; the Vmax is recorded as 4.046 mM sec^−1, µM CtHtrA^−1.

As for “DPMFKQT-pNA [Model E. coli substrate, change P1 and P2]”, at CtHtrA [2], the Kcat/Km was 542.2 M⁻¹ s⁻¹; the Km was 9.38 µM; the Vmax is listed as 0.3165 mM sec^−1, µM CtHtrA^−1.

Take “DPMFKLV-pNA [previously published E. coli DegP substrate [22], reference compound]”: at CtHtrA [2], the Kcat/Km was found to be 241.2 M⁻¹ s⁻¹; the Km stood at 323 µM; the Vmax is reported as 4.678 mM sec^−1, µM CtHtrA^−1.

In the case of “H-AESNFKMLEIEAE-OH [CtL0043, C-terminal 13 residues of outer membrane ß-barrel CtL0043]”, at CtHtrA [1], the “CtHtrA oligomer formation induced by activator” value is recorded as “activated mainly trimer formation with some 12-mer present”.

With “MCA-ENLHLPLPIIF-DNP [Bcas1, model ß-casein peptide substrate based on a ß-casein cleavage site]”, on CtHtrA [3], the “cleavage sites observed by LC-MS-MS” value was “Two cleavage sites”.

Consider “H-LAHMMNCGARMIF-OH [PmpC, C-terminal 13 residues of outer membrane ß-barrel PmpC]”, for which, at CtHtrA [1], the “CtHtrA oligomer formation induced by activator” value was “activated the formation of 12-mer”. Further, the “effect of activator on rate of CtHtrA proteolysis of Bcas1” value on CtHtrA [4] was “did not increase the rate of proteolysis of Bcas1”.

“insulin: previously demonstrated in vitro chaperone substrate of CtHtrA [reference compound]”: the figures for the “oligomer formation induced by activator” value with CtHtrA R299W, in the assay on CtHtrA R373A and in the assay with CtHtrA R373A/R299W were “mainly hexamer”, “mainly detected as hexamer” and “did not form a similar profile of oligomers as wild-type CtHtrA”, respectively. The “CtHtrA oligomer formation induced by activator” value with CtHtrA [1] is on record as “activated to 24-mers with little hexamer visible”.

In the case of “DPMFKLI-pNA [Model E. coli substrate, I at P1]”, on CtHtrA [2], the Km was found to be 527 µM and the Vmax is 10.340 mM sec^−1, µM CtHtrA^−1.

For the origin of these results see PMC3169616, “Unique Residues Involved in Activation of the Multitasking Protease/Chaperone HtrA from Chlamydia trachomatis” (PLoS ONE, 2011).
